According to US20250197374A1, “WEE1 DEGRADING COMPOUNDS AND USES THEREOF” (BRISTOL-MYERS SQUIBB COMPANY, priority 2023, published 2025):

Columns and labels:
Format in all cases: cell-based
WEE1 = target: T1, WEE1 (Homo sapiens, UniProt P30291+Q96SW2); assay: WEE1-ePL degradation assay (293T-LentiX, InCELL Hunter luminescence, 4 hr); conditions: for DC50: LentiX-HEK293T cells expressing WEE1-ePL, 4 hr incubation, read-out: 293T-LentiX WEE1-ePL Degradation 4 hr EC50; for 293T-LentiX WEE1-ePL Degradation 4 hr YMin (%): lower limit of fit, % of DMSO control signal remaining
T1 construct: C-terminal ePL-tagged (DiscoverX, Fremont, CA) full-length WEE1 expression construct; expressed in transfected cells; host or cells: LentiX-HEK293T (Invitrogen), lentivirally transduced; the cells also over-express GSPT1-GN
Procedure, shortened: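 EC50 comes from a four-parameter logistic fit of ePL luminescence (InCELL Hunter), with DMSO control defining Ymax. Compounds ran as 10-point 3-fold dilutions from 1 or 10 µM for 4 h at 37 °C. Cells were HEK293T-LentiX with ePL-tagged full-length WEE1 and over-expressed Cereblon-resistant GSPT1-GN.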

MKN45 cells = assay: MKN45 cell proliferation assay (Cell-Titer-Glo, 120 hr); conditions: for EC50: Homo sapiens, MKN-45, 120 h, read-out: MKN45 Cell Prolif. 120 hr EC50; for MKN45 Cell Prolif. 120 hr YMin (%): minimal percent of DMSO control observed
Procedure, shortened: (§1)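 Growth inhibition was read as CellTiter-Glo luminescence after 120 h at 37 °C in RPMI/10% FBS, with 400 MKN45 or 800 MDA-MB-231 cells seeded per well. Compounds were tested in 10-point half-log series starting at 1 or 10 uM (0.1% DMSO), in triplicate for MKN45 and duplicate for MDA-MB-231. EC50 values are four-parameter fits to %DMSO control, and Ymin-obs is the minimal observed %DMSO.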

MDA-MB-231 cells = assay: MDA-MB-231 cell proliferation assay (Cell-Titer-Glo, 120 hr); conditions: for EC50: Homo sapiens, MDA-MB-231, 120 h, read-out: MDA-MB 231 Cell Prolif. 120 hr EC50; for MDA-MB 231 Cell Prolif. 120 hr YMin (%): minimal percent of DMSO control observed
Procedure, shortened: as §1

T1 sequence (P30291 whole entry): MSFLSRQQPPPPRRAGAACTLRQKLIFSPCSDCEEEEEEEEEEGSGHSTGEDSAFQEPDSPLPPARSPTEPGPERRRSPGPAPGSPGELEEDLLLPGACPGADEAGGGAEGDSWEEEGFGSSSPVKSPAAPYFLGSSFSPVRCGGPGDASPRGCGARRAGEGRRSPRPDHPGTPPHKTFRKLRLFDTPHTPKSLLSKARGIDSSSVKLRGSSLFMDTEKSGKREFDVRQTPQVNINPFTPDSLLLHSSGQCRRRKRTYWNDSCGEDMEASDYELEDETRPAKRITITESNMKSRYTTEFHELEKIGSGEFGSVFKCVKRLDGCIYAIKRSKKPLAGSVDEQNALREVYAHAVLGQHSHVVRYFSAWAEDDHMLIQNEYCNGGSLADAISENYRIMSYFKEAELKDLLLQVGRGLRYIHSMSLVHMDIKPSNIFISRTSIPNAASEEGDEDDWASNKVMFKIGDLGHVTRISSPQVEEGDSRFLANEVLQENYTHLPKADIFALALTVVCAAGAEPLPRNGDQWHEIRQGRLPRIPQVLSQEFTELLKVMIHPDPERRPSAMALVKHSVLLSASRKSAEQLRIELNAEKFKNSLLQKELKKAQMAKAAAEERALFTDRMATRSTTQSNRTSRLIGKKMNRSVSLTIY
T1 sequence (Q96SW2 whole entry): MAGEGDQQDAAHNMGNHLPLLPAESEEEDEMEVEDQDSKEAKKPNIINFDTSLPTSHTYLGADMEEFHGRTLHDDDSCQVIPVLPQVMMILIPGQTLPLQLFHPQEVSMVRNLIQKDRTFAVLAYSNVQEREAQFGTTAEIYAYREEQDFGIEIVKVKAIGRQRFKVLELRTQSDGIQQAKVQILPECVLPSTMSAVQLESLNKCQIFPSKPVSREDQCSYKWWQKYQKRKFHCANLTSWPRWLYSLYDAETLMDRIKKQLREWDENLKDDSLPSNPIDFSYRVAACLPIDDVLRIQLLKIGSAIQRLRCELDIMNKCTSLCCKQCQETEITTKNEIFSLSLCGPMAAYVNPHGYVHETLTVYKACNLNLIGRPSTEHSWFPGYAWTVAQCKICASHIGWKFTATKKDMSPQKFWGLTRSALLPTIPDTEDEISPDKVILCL
T1 sequence (Q16531 whole entry partner): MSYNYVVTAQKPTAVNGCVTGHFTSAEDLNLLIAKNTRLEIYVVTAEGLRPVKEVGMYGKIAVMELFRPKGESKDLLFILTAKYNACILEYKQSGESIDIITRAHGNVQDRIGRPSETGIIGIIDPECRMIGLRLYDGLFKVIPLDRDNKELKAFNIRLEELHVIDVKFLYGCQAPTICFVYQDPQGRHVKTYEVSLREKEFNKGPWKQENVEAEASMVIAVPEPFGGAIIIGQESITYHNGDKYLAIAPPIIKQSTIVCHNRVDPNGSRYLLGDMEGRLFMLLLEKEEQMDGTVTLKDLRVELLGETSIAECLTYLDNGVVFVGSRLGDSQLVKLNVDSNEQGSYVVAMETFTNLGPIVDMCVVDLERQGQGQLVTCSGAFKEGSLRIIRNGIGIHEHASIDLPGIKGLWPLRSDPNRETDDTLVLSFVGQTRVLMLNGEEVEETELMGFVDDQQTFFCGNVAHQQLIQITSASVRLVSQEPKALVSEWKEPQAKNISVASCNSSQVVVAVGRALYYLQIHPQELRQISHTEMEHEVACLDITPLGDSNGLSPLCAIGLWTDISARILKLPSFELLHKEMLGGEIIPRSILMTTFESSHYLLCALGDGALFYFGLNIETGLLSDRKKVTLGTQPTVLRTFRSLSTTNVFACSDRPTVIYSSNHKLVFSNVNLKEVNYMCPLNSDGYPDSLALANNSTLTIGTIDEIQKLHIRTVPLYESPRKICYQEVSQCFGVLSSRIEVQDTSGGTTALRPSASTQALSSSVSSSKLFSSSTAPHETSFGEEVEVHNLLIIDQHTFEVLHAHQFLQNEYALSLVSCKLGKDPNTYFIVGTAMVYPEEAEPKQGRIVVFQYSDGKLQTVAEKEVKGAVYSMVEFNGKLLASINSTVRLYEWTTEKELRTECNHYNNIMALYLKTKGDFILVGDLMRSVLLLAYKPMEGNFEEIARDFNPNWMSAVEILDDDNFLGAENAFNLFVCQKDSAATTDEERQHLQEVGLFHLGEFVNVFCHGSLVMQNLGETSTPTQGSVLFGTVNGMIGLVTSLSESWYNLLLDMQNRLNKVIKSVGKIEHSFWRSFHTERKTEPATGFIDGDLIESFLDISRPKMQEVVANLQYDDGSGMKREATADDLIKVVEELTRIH

| SMILES | DC50 (WEE1) [nM] | 293T-LentiX WEE1-ePL Degradation 4 hr YMin (%) (WEE1) | EC50 (MKN45 cells) [nM] | MKN45 Cell Prolif. 120 hr YMin (%) (MKN45 cells) | EC50 (MDA-MB-231 cells) [nM] | MDA-MB 231 Cell Prolif. 120 hr YMin (%) (MDA-MB-231 cells) |
| --- | --- | --- | --- | --- | --- | --- |
| O=C(O)CC(CCO)c1ccc2cc(CN3CC[C@H](Oc4ccc5c(c4)CN([C@H]4CCC(=O)NC4=O)C5=O)C3)cc(F)c2n1 (relative stereo) [Example 99, rel-3-(6-{[(3S)-3-({2-[(3S)-2,6-dioxopiperidin-3-yl]-1-oxo-2,3-dihydro-1H-isoindol-5-yl}oxy)pyrrolidin-1-yl]methyl}-8-fluoroquinolin-2-yl)-5-hydroxypentanoic acid] | 75 | 39.0 | 282 | 82.9 | 73 | 78.7 |
| COC[C@@H]1CN(Cc2cc(F)c3nc(C4CCC(C(C)(C)O)CC4)ncc3c2)C[C@H]1Oc1ccc2c(c1)CN([C@H]1CCC(=O)NC1=O)C2=O (relative stereo) [Example 111, rel-(S)-3-(5-(((3S,4S)-1-((8-fluoro-2-(4-(2-hydroxypropan-2-yl)cyclohexyl)quinazolin-6-yl)methyl)-4-(methoxymethyl)pyrrolidin-3-yl)oxy)-1-oxoisoindolin-2-yl)piperidine-2,6-dione] | 1 | 27.1 | 1 | 7.8 | 26 | 16.4 |
| COC[C@@H]1CN(Cc2cc3ccc(C4CCC(C(C)(C)O)CC4)cc3cn2)C[C@H]1Oc1ccc2c(c1)CN([C@H]1CCC(=O)NC1=O)C2=O (relative stereo) [Example 112, rel-(S)-3-(5-(((3S,4S)-1-((7-(4-(2-hydroxypropan-2-yl)cyclohexyl)isoquinolin-3-yl)methyl)-4-(methoxymethyl)pyrrolidin-3-yl)oxy)-1-oxoisoindolin-2-yl)piperidine-2,6-dione] | 1 | 28.0 |  | 8.7 | 12 | 25.2 |
| O=C1CC[C@H](N2Cc3cc(O[C@@H]4CN(Cc5cc(F)c6nc(C7CCOCC7)ccc6c5)C[C@H]4c4ccccc4)ccc3C2=O)C(=O)N1 (relative stereo) [Example 116, (S)-3-(5-(((3S*,4R*)-1-((8-fluoro-2-(tetrahydro-2H-pyran-4-yl)quinolin-6-yl)methyl)-4-phenylpyrrolidin-3-yl)oxy)-1-oxoisoindolin-2-yl)piperidine-2,6-dione] |  | 85.0 | 1 | 83.5 | 2590 | 89.1 |
| O=C1CC[C@H](N2Cc3cc(O[C@@H]4CN(Cc5cc(F)c6nc(C7CCOCC7)ccc6c5)C[C@H]4c4ccncc4)ccc3C2=O)C(=O)N1 (relative stereo) [Example 118, (S)-3-(5-(((3S*,4R*)-1-((8-fluoro-2-(tetrahydro-2H-pyran-4-yl)quinolin-6-yl)methyl)-4-(pyridin-4-yl)pyrrolidin-3-yl)oxy)-1-oxoisoindolin-2-yl)piperidine-2,6-dione] |  | 92.4 |  | 65.0 | 286 | 70.2 |
| O=C1CC[C@H](N2Cc3cc(O[C@@H]4CN(Cc5cc(F)c6nc(C7CCOCC7)ccc6c5)C[C@H]4C4CCCC4)ccc3C2=O)C(=O)N1 (relative stereo) [Example 123, (S)-3-(5-(((3S*,4R*)-4-Cyclopentyl-1-((8-fluoro-2-(tetrahydro-2H-pyran-4-yl)-quinolin-6-yl)methyl)pyrrolidin-3-yl)oxy)-1-oxoisoindolin-2-yl)piperidine-2,6-dione] |  | 82.5 |  | 80.9 | 3490 | 81.9 |
| Cc1cc([C@@H]2CN(Cc3cc(F)c4nc(C5CCOCC5)ccc4c3)C[C@H]2Oc2ccc3c(c2)CN([C@H]2CCC(=O)NC2=O)C3=O)cc(C)n1 (relative stereo) [Example 127, (3S)-3-(5-{[(3S*,4R*)-4-(2,6-dimethylpyridin-4-yl)-1-{[8-fluoro-2-(oxan-4-yl)quinolin-6-yl]methyl}pyrrolidin-3-yl]oxy}-1-oxo-2,3-dihydro-1H-isoindol-2-yl)piperidine-2,6-dione] | 3 | 20.2 | 12 | 9.8 | 278 | 40.1 |
| CC(C)C[C@@H]1CN(Cc2cc(F)c3nc(C4CCOCC4)ccc3c2)C[C@H]1Oc1ccc2c(c1)CN([C@H]1CCC(=O)NC1=O)C2=O (relative stereo) [Example 130, (3S)-3-(5-{[(3S*,4R*)-1-{[8-fluoro-2-(oxan-4-yl)quinolin-6-yl]methyl}-4-(2-methylpropyl)pyrrolidin-3-yl]oxy}-1-oxo-2,3-dihydro-1H-isoindol-2-yl)piperidine-2,6-dione] | 6 | 78.0 | 1 | 94.4 | 5960 | 84.1 |
| O=C1CC[C@H](N2Cc3cc(O[C@H]4CN(Cc5cc(F)c6nc(C7CCOCC7)ccc6c5)C[C@@H]4c4ccccc4)ccc3C2=O)C(=O)N1 (relative stereo) [Example 145, (S)-3-(5-(((3R*,4S*)-1-((8-fluoro-2-(tetrahydro-2H-pyran-4-yl)quinolin-6-yl)methyl)-4-phenylpyrrolidin-3-yl)oxy)-1-oxoisoindolin-2-yl)piperidine-2,6-dione] | 4 | 22.4 | 33 | 16.3 | 2370 | 74.7 |
| O=C1CC[C@H](N2Cc3cc(O[C@H]4CN(Cc5cc(F)c6nc(C7CCOCC7)ccc6c5)C[C@@H]4C4CCCC4)ccc3C2=O)C(=O)N1 (relative stereo) [Example 146, (S)-3-(5-(((3R*,4S*)-4-Cyclopentyl-1-((8-fluoro-2-(tetrahydro-2H-pyran-4-yl)-quinolin-6-yl)methyl)pyrrolidin-3-yl)oxy)-1-oxoisoindolin-2-yl)piperidine-2,6-dione] | 1 | 24.2 | 3 | 10.8 | 585 | 50.7 |
| Cc1cc([C@H]2CN(Cc3cc(F)c4nc(C5CCOCC5)ccc4c3)C[C@@H]2Oc2ccc3c(c2)CN([C@H]2CCC(=O)NC2=O)C3=O)cc(C)n1 (relative stereo) [Example 147, (S)-3-(5-(((3R*,4S*)-4-(2,6-dimethylpyridin-4-yl)-1-((8-fluoro-2-(tetrahydro-2H-pyran-4-yl)quinolin-6-yl)methyl)pyrrolidin-3-yl)oxy)-1-oxoisoindolin-2-yl)piperidine-2,6-dione] |  | 93.2 | 308 | 92.2 | 443 | 79.7 |
| CC(C)C[C@H]1CN(Cc2cc(F)c3nc(C4CCOCC4)ccc3c2)C[C@@H]1Oc1ccc2c(c1)CN([C@H]1CCC(=O)NC1=O)C2=O (relative stereo) [Example 148, (3S)-3-(5-{[(3R*,4S*)-1-{[8-fluoro-2-(oxan-4-yl)quinolin-6-yl]methyl}-4-(2-methylpropyl)pyrrolidin-3-yl]oxy}-1-oxo-2,3-dihydro-1H-isoindol-2-yl)piperidine-2,6-dione] | 1 | 28.4 | 3 | 9.9 | 207 | 74.8 |
| O=C1CC[C@H](N2Cc3cc(O[C@H]4CN(Cc5cc(F)c6nc(C7CCOCC7)ccc6c5)C[C@@H]4c4ccncc4)ccc3C2=O)C(=O)N1 (relative stereo) [Example 149, ((S)-3-(5-(((3R*,4S*)-1-((8-fluoro-2-(tetrahydro-2H-pyran-4-yl)quinolin-6-yl)methyl)-4-(pyridin-4-yl)pyrrolidin-3-yl)oxy)-1-oxoisoindolin-2-yl)piperidine-2,6-dione] | 7 | 24.4 | 23 | 11.0 | 429 | 68.7 |
